Measured values from ChEMBL document CHEMBL1201862, “PubChem BioAssay data set” (2004).
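In this assay, cells in 96-well plates receive the compound at five concentrations for 48 hours. Endpoints are linearly interpolated between the surrounding concentrations. At the GI50, growth is halved.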 The source made the active and inactive calls. Rule as the data show it: active = GI50 up to about 1.1 µM and inactive = higher. Where a SMILES comes first, the peptide text is derived from it. [ ]: non-standard residue; d: D form. Ac5c = NC1(C(=O)O)CCCC1

How the values were obtained:
Assay in all cases: NCI anticancer screen, dose series, 48 h
PC-3 = test system: PC-3
NCI-H522 = test system: NCI-H522
SF-268 = test system: SF-268
EKVX = test system: EKVX
A498 = test system: A498
MDA-MB-435 = test system: MDA-MB-435
MDA-MB-231 = test system: MDA-MB-231
NCI-H23 = test system: NCI-H23
SNB-75 = test system: SNB-75
LOX IMVI = test system: LOX IMVI
HOP-92 = test system: HOP-92
SF-539 = test system: SF-539
RXF 393 = test system: RXF 393
CAKI-1 = test system: CAKI-1
HOP-62 = test system: HOP-62
UACC-62 = test system: UACC-62
COLO 205 = test system: COLO 205
SW-620 = test system: SW-620
UO-31 = test system: UO-31
NCI/ADR-RES = test system: NCI/ADR-RES

SMILES	GI50 (PC-3)	GI50 (NCI-H522)	GI50 (SF-268)	GI50 (EKVX)	GI50 (A498)	GI50 (MDA-MB-435)	GI50 (MDA-MB-231)	GI50 (NCI-H23)	GI50 (SNB-75)	GI50 (LOX IMVI)	GI50 (HOP-92)	GI50 (SF-539)	GI50 (RXF 393)	GI50 (CAKI-1)	GI50 (HOP-62)	GI50 (UACC-62)	GI50 (COLO 205)	GI50 (SW-620)	GI50 (UO-31)	GI50 (NCI/ADR-RES)
CCOc1ccc(/N=C/C=C(\Cl)c2ccc3ccccc3c2)cc1	16.5 µM (inactive)	19.5 µM (inactive)	17.9 µM (inactive)	27.2 µM (inactive)	> 58.3 µM (inactive)	19.4 µM (inactive)	15.4 µM (inactive)	10.6 µM (inactive)	14.3 µM (inactive)	6.58 µM (inactive)	15.3 µM (inactive)	21.2 µM (inactive)	15.3 µM (inactive)	18.8 µM (inactive)	15.3 µM (inactive)	15.8 µM (inactive)	16.7 µM (inactive)	7.33 µM (inactive)	15.2 µM (inactive)	12.1 µM (inactive)
CCN(CC)C(=S)SC1CCOP(=O)(N(CCCl)CCCl)N1C (stereo not given)	> 100 µM (inactive)	0.43 µM (active)	> 50.7 µM (inactive)	57.1 µM (inactive)	44.9 µM (inactive)	> 100 µM (inactive)	> 100 µM (inactive)	> 100 µM (inactive)	> 55.1 µM (inactive)	1.41 µM (inactive)	28.2 µM (inactive)	33.4 µM (inactive)	29.9 µM (inactive)	45.6 µM (inactive)	> 95.1 µM (inactive)	1.83 µM (inactive)	0.553 µM (active)	1.71 µM (inactive)	67.8 µM (inactive)	> 100 µM (inactive)
Nc1ccc2c(SCc3ccc([N+](=O)[O-])cc3)c3ccccc3nc2c1	16 µM (inactive)	3.47 µM (inactive)	15.2 µM (inactive)	24.8 µM (inactive)	22.5 µM (inactive)	14.5 µM (inactive)	25.5 µM (inactive)	17 µM (inactive)	17.7 µM (inactive)	6.84 µM (inactive)	15.2 µM (inactive)	16.4 µM (inactive)	19.4 µM (inactive)	13.3 µM (inactive)	21.8 µM (inactive)	16.3 µM (inactive)	2.28 µM (inactive)	2.87 µM (inactive)	14 µM (inactive)	18.2 µM (inactive)
O=C(Oc1c(Cl)cc(C2(c3cc(Cl)c(OC(=O)c4ccccc4)c(Cl)c3)CCCCC2)cc1Cl)c1ccccc1	9.42 µM (inactive)	13.7 µM (inactive)	12.6 µM (inactive)	11.1 µM (inactive)	11.4 µM (inactive)	10.1 µM (inactive)	13.7 µM (inactive)	10.4 µM (inactive)	11.7 µM (inactive)	14.2 µM (inactive)	8.45 µM (inactive)	14.3 µM (inactive)	11.5 µM (inactive)	5.01 µM (inactive)	12.4 µM (inactive)	10.5 µM (inactive)	5.78 µM (inactive)	16.2 µM (inactive)	18.5 µM (inactive)	11.6 µM (inactive)
NC1(C(=O)NC2(C(=O)O)CCCC2)CCCC1 (H-[Ac5c]-[Ac5c]-OH)	> 100 µM (inactive)	> 100 µM (inactive)	> 100 µM (inactive)	> 100 µM (inactive)	> 100 µM (inactive)	> 100 µM (inactive)	> 100 µM (inactive)	> 100 µM (inactive)	> 100 µM (inactive)	> 100 µM (inactive)	> 100 µM (inactive)	> 100 µM (inactive)	> 100 µM (inactive)	> 100 µM (inactive)	> 100 µM (inactive)	> 100 µM (inactive)	> 100 µM (inactive)	> 100 µM (inactive)	> 100 µM (inactive)	> 100 µM (inactive)
CCOC(=O)/C=C/[C@H](O[Si](c1ccccc1)(c1ccccc1)c1ccccc1)C(C)(C)C	10.5 µM (inactive)	> 31.5 µM (inactive)	> 31.6 µM (inactive)	> 31.6 µM (inactive)	> 31.6 µM (inactive)	> 31.6 µM (inactive)	> 31.6 µM (inactive)	> 31.6 µM (inactive)	> 31.6 µM (inactive)	> 31.6 µM (inactive)	> 31.6 µM (inactive)	> 31.6 µM (inactive)	15.5 µM (inactive)	28.4 µM (inactive)	> 31.6 µM (inactive)	> 31.6 µM (inactive)	> 31.6 µM (inactive)	> 31.6 µM (inactive)	> 31.6 µM (inactive)	28.5 µM (inactive)
CCc1ccc(/C=C/C(=O)C2CN(CC)CCC2(O)/C=C/c2ccc(CC)cc2)cc1 (stereo not given)	3.55 µM (inactive)	2.59 µM (inactive)	4.57 µM (inactive)	4.75 µM (inactive)	10.7 µM (inactive)	1.88 µM (inactive)	2.23 µM (inactive)	4.61 µM (inactive)	9.33 µM (inactive)	1.51 µM (inactive)	1.71 µM (inactive)	2.31 µM (inactive)	3.18 µM (inactive)	6.59 µM (inactive)	1.91 µM (inactive)	4.92 µM (inactive)	2.45 µM (inactive)	1.88 µM (inactive)	3.2 µM (inactive)	3.47 µM (inactive)
CCCCNc1nc(SC)nc2[nH]cnc12	> 100 µM (inactive)	> 100 µM (inactive)	98.4 µM (inactive)	> 87.7 µM (inactive)	5.96 µM (inactive)	> 100 µM (inactive)	> 81.1 µM (inactive)	> 100 µM (inactive)	76.7 µM (inactive)	> 100 µM (inactive)	> 59 µM (inactive)	> 100 µM (inactive)	> 88.5 µM (inactive)	> 100 µM (inactive)	> 100 µM (inactive)	> 100 µM (inactive)	> 100 µM (inactive)	> 100 µM (inactive)	> 100 µM (inactive)	> 100 µM (inactive)
COc1ccc(OC)c(-c2nc3n(c2/C=C2/C(=O)Nc4ccccc42)CCS3)c1	86.5 µM (inactive)	34 µM (inactive)	67.5 µM (inactive)	> 100 µM (inactive)	48.5 µM (inactive)	17.5 µM (inactive)	25.6 µM (inactive)	> 100 µM (inactive)	22.3 µM (inactive)	51.2 µM (inactive)	48.6 µM (inactive)	47.9 µM (inactive)	21.4 µM (inactive)	51.4 µM (inactive)	58.6 µM (inactive)	48.4 µM (inactive)	39.5 µM (inactive)	40.9 µM (inactive)	41.4 µM (inactive)	34.8 µM (inactive)
CC(=O)c1nc2ccccc2n1C(C)C(=O)c1ccccc1 (stereo not given)	72.1 µM (inactive)	15.5 µM (inactive)	26.5 µM (inactive)	> 100 µM (inactive)	> 100 µM (inactive)	52.7 µM (inactive)	36.1 µM (inactive)	> 100 µM (inactive)	> 100 µM (inactive)	34.3 µM (inactive)	69.3 µM (inactive)	> 100 µM (inactive)	> 100 µM (inactive)	61.5 µM (inactive)	57.1 µM (inactive)	33 µM (inactive)	> 100 µM (inactive)	43.7 µM (inactive)	50.7 µM (inactive)	46 µM (inactive)
CCOc1c(OC)cc(C2c3cc4c(c(OCC)c3CC3COC(=O)C32)OCO4)cc1OC (stereo not given)	2.37 µM (inactive)	2.25 µM (inactive)	7.21 µM (inactive)	12.7 µM (inactive)	10.9 µM (inactive)	0.272 µM (active)	2.17 µM (inactive)	1.82 µM (inactive)	5.11 µM (inactive)	1.67 µM (inactive)	37.1 µM (inactive)	1.75 µM (inactive)	4.6 µM (inactive)	5.16 µM (inactive)	1.78 µM (inactive)	0.365 µM (active)	2.22 µM (inactive)	1.24 µM (inactive)	3.87 µM (inactive)	2.03 µM (inactive)
Oc1cc(-c2ccc(F)cc2)nc2ncc(Cl)cc12	20.2 µM (inactive)	10.5 µM (inactive)	67 µM (inactive)	30.3 µM (inactive)	17.4 µM (inactive)	2.82 µM (inactive)	> 65.5 µM (inactive)	38.2 µM (inactive)	11.7 µM (inactive)	28.6 µM (inactive)	2.94 µM (inactive)	27.6 µM (inactive)	17.2 µM (inactive)	33 µM (inactive)	32.2 µM (inactive)	9.71 µM (inactive)	22.3 µM (inactive)	11.1 µM (inactive)	> 85.9 µM (inactive)	18 µM (inactive)
CCOC(=O)C(Cc1ccc(N(CCCl)CCCl)cc1)NC(=O)CCCN1C(=O)CN=C(c2ccccc2)c2cc(Cl)ccc21 (stereo not given)	11.7 µM (inactive)	3.03 µM (inactive)	4.01 µM (inactive)	41.3 µM (inactive)	39.9 µM (inactive)	16.1 µM (inactive)	22.1 µM (inactive)	9.66 µM (inactive)	15.8 µM (inactive)	3.18 µM (inactive)	3.77 µM (inactive)	6.37 µM (inactive)	3.25 µM (inactive)	15.2 µM (inactive)	36.9 µM (inactive)	2.72 µM (inactive)	16.2 µM (inactive)	10.2 µM (inactive)	13.8 µM (inactive)	22 µM (inactive)
N#Cc1cccc(N2C(=O)C3C4C=CC(C3C2=O)C2C(=O)N(c3cccc(C#N)c3)C(=O)C42)c1 (stereo not given)	> 100 µM (inactive)	22.7 µM (inactive)	19.8 µM (inactive)	> 100 µM (inactive)	22.4 µM (inactive)	> 100 µM (inactive)	> 51.5 µM (inactive)	27.6 µM (inactive)	6.12 µM (inactive)	61.9 µM (inactive)	15.2 µM (inactive)	29.3 µM (inactive)	10.2 µM (inactive)	55.5 µM (inactive)	18.3 µM (inactive)	54 µM (inactive)	> 63.1 µM (inactive)	> 100 µM (inactive)	49.1 µM (inactive)	> 100 µM (inactive)
